These results are taken from patent EP2305660A1, “New thiadiazole derivatives” (Almirall, S.A., priority 2009, dated 2011).

Structures are written as SMILES. Where a name gives a salt, the structure may show the parent alone.

The target in the experiment is S1P1 (Homo sapiens, UniProt P21453). The experiment is described as follows: 35S-GTPyS binding assay (membranes). The following applies: compound 0.1nM-10µM, 0.1nM 35S-GTPyS, 10µM S1P as 100% maximum efficacy, 90 min at room temperature. Type of experiment: biochemical. On the procedure: The effect of the compounds was measured using a 35S-GTPyS binding assay. Briefly, membranes were incubated in a buffer containing 20 mM HEPES pH 7.4, 100 mM NaCl, 10 mM MgCl2, 10µM GDP, 50µg/ml saponin and 0.2% fatty acid-free BSA at various concentrations (0.1nM-10µM) and 0.1nM 35S-GTPyS. 10µM S1P was used as 100% maximum efficacy. The assay was incubated for 90 min at room temperature with gentle mixing, and terminated by filtrating the reaction mixture through GF/C filter plates using the Manifold Filtration System. The filters were immediately washed with sodium phosphate pH 7.4 buffer. After drying the filter plates scintillant liquid were added to each well and 35S-GTPyS binding was measured on a Trilux Scintillation Counter.
Chain of S1P1 (P21453 whole entry, species assumed): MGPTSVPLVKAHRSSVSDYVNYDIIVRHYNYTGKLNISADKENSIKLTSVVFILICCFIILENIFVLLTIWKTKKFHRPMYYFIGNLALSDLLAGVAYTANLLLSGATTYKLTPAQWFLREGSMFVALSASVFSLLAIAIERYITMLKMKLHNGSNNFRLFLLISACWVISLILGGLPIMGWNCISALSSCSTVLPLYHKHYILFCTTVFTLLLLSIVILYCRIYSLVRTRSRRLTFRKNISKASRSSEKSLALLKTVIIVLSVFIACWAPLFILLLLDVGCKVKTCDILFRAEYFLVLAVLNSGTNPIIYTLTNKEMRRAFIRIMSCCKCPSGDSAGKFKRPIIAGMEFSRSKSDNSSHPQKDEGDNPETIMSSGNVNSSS
For `Cc1cc(-c2nnc(N(CC3CC3)C(=O)c3ccccc3Cl)s2)cc(C)c1OCCN1CCC(CC(=O)O)CC1` [Example 23, {1-[2-(4-{5-[(2-chlorobenzoyl)(cyclopropylmethyl)amino]-1,3,4-thiadiazol-2-yl}-2,6-dimethylphenoxy)ethyl]piperidin-4-yl}acetic acid hydrochloride], the EC50 (usually the concentration that produces a half-maximal response) worked out at 4.1 nM.

On to `CCCCN(C(=O)c1ccccc1F)c1nnc(-c2ccc(CN3CC(c4nnn[nH]4)C3)cc2)s1` [Example 30, N-butyl-2-fluoro-N-[5-(4-{[3-(1H-tetrazol-5-yl)azetidin-1-yl]methyl}phenyl)-1,3,4-thiadiazol-2-yl]benzamide], for which the EC50 was found to be 2.3 nM. The same measure for `CCCCN(C(=O)c1ccccc1F)c1nnc(-c2cc(C)c(OCCNCCc3nn[nH]n3)c(C)c2)s1` [Example 12, N-butyl-N-{5-[3,5-dimethyl-4-(2-{[2-(2H-tetrazol-5-yl)ethyl]amino}ethoxy)phenyl]-1,3,4-thiadiazol-2-yl}-2-fluorobenzamide]: 0.4 nM; for `CCCCN(C(=O)c1ccccc1F)c1nnc(-c2cc(C)c(OCCN(C)CCO)c(C)c2)s1` [Example 57, N-butyl-2-fluoro-N-[5-(4-{2-[(2-hydroxyethyl)(methyl)amino]ethoxy}-3,5-dimethylphenyl)-1,3,4-thiadiazol-2-yl]benzamide]: 8.5 nM; for `CCCCN(C(=O)c1ccccc1F)c1nnc(-c2cc(C)c(OCCNCCn3cncn3)c(C)c2)s1` [Example 31, N-butyl-N-{5-[3,5-dimethyl-4-(2-{[2-(1H-1,2,4-triazol-1-yl)ethyl]amino}ethoxy)-phenyl]-1,3,4-thiadiazol-2-yl}-2-fluorobenzamide]: 4.1 nM. The value for `CCCCN(C(=O)c1ccccc1F)c1nnc(-c2ccc(CNCCO)cc2)s1` [Example 36, N-butyl-2-fluoro-N-[5-(4-{[(2-hydroxyethyl)amino]methyl}phenyl)-1,3,4-thiadiazol-2-yl]benzamide, formate salt] was 40 nM.

`CCCCN(C(=O)Nc1ccccc1)c1nnc(-c2ccc(CN3CC(C(=O)O)C3)cc2)s1` [Example 40, 1-(4-{5-[(anilinocarbonyl)(butyl)amino]-1,3,4-thiadiazol-2-yl}benzyl)azetidine-3-carboxylic acid] had an EC50 of 70 nM. The same measure for `CCCCN(C(=O)c1ccccc1F)c1nnc(-c2cc(C)c(OCCN3CC(C(=O)O)C3)c(C)c2)s1` [Example 1, 1-[2-(4-{5-[Butyl(2-fluorobenzoyl)amino]-1,3,4-thiadiazol-2-yl}-2,6-dimethylphenoxy)ethyl]azetidine-3-carboxylic acid]: 2.5 nM.
